For this test, the target named is T1, pol μ (truncated human wild-type DNA polymerase μ) (Homo sapiens, UniProt Q9NP87, DEL398-410).
T1 construct: gene POLM; recalled: residues about 132-494; loop2 'previously truncated to improve crystallizability' (between Pro397 and Ser411; recalled deletion Pro398-Pro410); GST fusion from pGEXM, tag cut on resin with TEV; E. coli BL21(DE3)CodonPlus-RIPL; parent model PDB 4M04
Nature of the test: time-lapse X-ray crystallography. In kind it is binding. To be noted: product complex after in crystallo TTP insertion into gapped DNA; 10 mM MgCl2 (60 min, 2.02 Å) or 10 mM MnCl2; 4 °C, pH 7.5.

T1 sequence (Q9NP87 with tags, fused parts or gaps DEL398-410): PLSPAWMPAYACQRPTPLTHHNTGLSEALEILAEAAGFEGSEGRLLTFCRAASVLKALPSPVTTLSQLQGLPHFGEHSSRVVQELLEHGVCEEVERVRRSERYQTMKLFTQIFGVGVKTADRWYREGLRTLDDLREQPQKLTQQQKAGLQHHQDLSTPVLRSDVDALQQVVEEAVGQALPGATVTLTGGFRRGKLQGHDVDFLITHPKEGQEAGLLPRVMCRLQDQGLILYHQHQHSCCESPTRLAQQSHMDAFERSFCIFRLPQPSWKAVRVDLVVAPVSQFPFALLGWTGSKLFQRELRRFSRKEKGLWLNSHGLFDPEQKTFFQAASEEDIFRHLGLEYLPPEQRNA

As to `O=P(O)(O)OP(=O)(O)O` [PPi], the “time-lapse X-ray crystallography” value was “The position of Pβ of the PPi product is identical to that expected after bond cleavage”.

The values are drawn from paper PMC5557891, “Time-lapse crystallography snapshots of a double-strand break repair polymerase in action” (Nature Communications, 2017).
